Assay results taken from PubChem BioAssay (NCI).
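Protocol summary: plate cells (96-well), add compound at 5 concentrations, incubate 48 h, interpolate endpoints linearly. The concentration for 50% growth inhibition is given as GI50. Definition used: TGI = concentration required for complete inhibition of growth.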

Legend:
Experiment in all cases: NCI-60 cell line screen, 48 h
[1] = system: EKVX NSCLC
[2] = system: A498 renal
[3] = system: NCI-H522 lung
[4] = system: SF-539 CNS
[5] = system: SNB-75 CNS
[6] = system: MALME-3M melanoma
[7] = system: OVCAR-3 ovarian
[8] = system: HOP-62 NSCLC
[9] = system: HCT-15 colon
[10] = system: 786-0 renal
[11] = system: COLO 205 colon
[12] = system: SNB-19 CNS
[13] = system: SF-295 CNS
[14] = system: PC-3 prostate
[15] = system: CAKI-1 renal
[16] = system: ACHN renal
[17] = system: TK-10 renal
[18] = system: SN12C renal
[19] = system: SW-620 colon
[20] = system: NCI/ADR-RES ovarian
[21] = system: MDA-MB-435
[22] = system: SK-MEL-5 melanoma
[23] = system: M14 melanoma
[24] = system: SK-MEL-2 melanoma
[25] = system: K-562 leukemia
[26] = system: DU-145 prostate
[27] = system: NCI-H460 lung
[28] = system: CCRF-CEM leukemia
[29] = system: KM12 colon
[30] = system: HS 578T breast
[31] = system: HCT-116 colon
[32] = system: HL-60(TB) leukemia
[33] = system: NCI-H226 lung
[34] = system: SK-MEL-28 melanoma
[35] = system: MOLT-4 leukemia
[36] = system: UO-31 renal
[37] = system: UACC-257 melanoma
[38] = system: MDA-MB-231 breast
[39] = system: RPMI-8226 leukemia
[40] = system: LOX IMVI melanoma
[41] = system: HT29 colon
[42] = system: T-47D breast
[43] = system: HOP-92 NSCLC
[44] = system: OVCAR-5 ovarian
[45] = system: SF-268 CNS
[46] = system: HCC-2998 colon
[47] = system: NCI-H23 lung
[48] = system: IGROV1 ovarian
[49] = system: U251 CNS
[50] = system: A549 NSCLC
[51] = system: SR leukemia
[52] = system: MCF7 breast
[53] = system: OVCAR-8 ovarian
[54] = system: RXF 393 renal
[55] = system: OVCAR-4 ovarian
[56] = system: BT-549 breast
[57] = system: UACC-62 melanoma
[58] = system: MDA-MB-468 breast
[59] = system: SK-OV-3 ovarian

S=C(Nc1ccc(OCc2nc3ccc(Cl)cc3[nH]2)cc1)NC1CCCCC1
GI50 [1]: 7.23 µM
TGI [1]: 20.9 µM
GI50 [2]: 11.2 µM
TGI [2]: 23.8 µM
GI50 [3]: 2.9 µM
TGI [3]: 12.6 µM
GI50 [4]: 12.1 µM
TGI [4]: 24.5 µM
GI50 [5]: 1.79 µM
TGI [5]: 15.2 µM
GI50 [6]: 11.6 µM
TGI [6]: 23.8 µM
GI50 [7]: 4.44 µM
TGI [7]: 18.8 µM
GI50 [8]: 12.3 µM
TGI [8]: 26.4 µM
GI50 [9]: 5.5 µM
TGI [9]: 18.7 µM
GI50 [10]: 7.4 µM
TGI [10]: 21.4 µM
GI50 [11]: 10.2 µM
TGI [11]: 27.6 µM
GI50 [12]: 10.7 µM
TGI [12]: 22.6 µM
GI50 [13]: 9.72 µM
TGI [13]: 22.9 µM
GI50 [14]: 4.29 µM
TGI [14]: 18.7 µM
GI50 [15]: 3.47 µM
TGI [15]: 15.5 µM
GI50 [16]: 4.99 µM
TGI [16]: 17.4 µM
GI50 [17]: 12.4 µM
TGI [17]: 24.9 µM
GI50 [18]: 8.32 µM
TGI [18]: 21.2 µM
GI50 [19]: 9.55 µM
TGI [19]: 24.2 µM
GI50 [20]: 9.57 µM
TGI [20]: 25.3 µM
GI50 [21]: 6.97 µM
TGI [21]: 22 µM
GI50 [22]: 5.79 µM
TGI [22]: 19.5 µM
GI50 [23]: 6.73 µM
TGI [23]: 22.5 µM
GI50 [24]: 11.4 µM
TGI [24]: 24.5 µM
GI50 [25]: 3.57 µM
TGI [25]: 15.1 µM
GI50 [26]: 11.3 µM
TGI [26]: 27.7 µM
GI50 [27]: 3.96 µM
TGI [27]: 14.2 µM
GI50 [28]: 3.59 µM
TGI [28]: 16.6 µM
GI50 [29]: 4.8 µM
TGI [29]: 17.5 µM
GI50 [30]: 7.33 µM
TGI [30]: 28.7 µM
GI50 [31]: 5.99 µM
TGI [31]: 21.5 µM
GI50 [32]: 2.63 µM
TGI [32]: 13.2 µM
GI50 [33]: 10.8 µM
TGI [33]: 29.1 µM
GI50 [34]: 12.1 µM
TGI [34]: 24.5 µM
GI50 [35]: 4.01 µM
TGI [35]: 13.9 µM
GI50 [36]: 3.88 µM
TGI [36]: 16.6 µM
GI50 [37]: 7.53 µM
TGI [37]: 21.6 µM
GI50 [38]: 7.42 µM
TGI [38]: 20.4 µM
GI50 [39]: 7.09 µM
TGI [39]: 41.8 µM
GI50 [40]: 2.83 µM
TGI [40]: 11.5 µM
GI50 [41]: 4.44 µM
TGI [41]: 16 µM
GI50 [42]: 7.75 µM
TGI [42]: 26.2 µM
GI50 [43]: 3.27 µM
TGI [43]: 14.7 µM
GI50 [44]: 10.8 µM
TGI [44]: 22.6 µM
GI50 [45]: 8.19 µM
TGI [45]: 24.5 µM
GI50 [46]: 3.12 µM
TGI [46]: 12.5 µM
GI50 [47]: 8.56 µM
TGI [47]: 21.4 µM
GI50 [48]: 6.95 µM
TGI [48]: 20.2 µM
GI50 [49]: 11.7 µM
TGI [49]: 24.8 µM
GI50 [50]: 6.51 µM
TGI [50]: 21.6 µM
GI50 [51]: 2.61 µM
TGI [51]: 8.45 µM
GI50 [52]: 2.87 µM
TGI [52]: 12.4 µM
GI50 [53]: 13.1 µM
TGI [53]: 28.5 µM
GI50 [54]: 6.21 µM
TGI [54]: 20.5 µM
GI50 [55]: 6.82 µM
TGI [55]: 25.1 µM
GI50 [56]: 15 µM
TGI [56]: 29.1 µM
GI50 [57]: 6.68 µM
TGI [57]: 20.4 µM
GI50 [58]: 2.97 µM
TGI [58]: 13.2 µM
GI50 [59]: 13.4 µM
TGI [59]: 27 µM
